Data set [1] has as its target adenosine A2B receptor (Homo sapiens (Human), UniProt P29275). The data set can be described thus: Adenosine receptor activity assay (Table 1), A2B activity. Format: biochemical. To be noted: for Ratio: A2A activity to A2B activity (A2A/A2B); for IC50: read-out: Ave A2B cAMP IC50.
Data set [2] addresses adenosine A2A receptor (Homo sapiens (Human), UniProt P29274). The data set can be described thus: Adenosine receptor activity assay (Table 1), A2A activity. Format: biochemical. To be noted: read-out: Ave A2A cAMP IC50.
Data set [3] addresses T1, adenosine A1 receptor (Homo sapiens (Human), UniProt P30542). The data set can be described thus: A1 cAMP IC50 assay (Table 1). Type of data set: biochemical.
The target in data set [4] is T2, adenosine A3 receptor (Homo sapiens (Human), UniProt P0DMS8). Briefly: A3 cAMP IC50 assay (Table 1). Format: biochemical.
Data set [5] concerns the target CYP3A4 (Homo sapiens (Human), UniProt P08684). The data set can be described thus: CYP450 inhibition at 10 μM, CYP3A4. Format: in vitro ADME. To be noted: human, 10 μM, read-out: CYP 450 % INH @ 10 μM.
The target in data set [6] is CYP2D6 (Homo sapiens (Human), UniProt P10635). Briefly: CYP450 inhibition at 10 μM, CYP2D6. Format: in vitro ADME. To be noted: read-out: CYP 450 % INH @ 10 μM.
Data set [7] can be described thus: Liver microsome (LM) intrinsic clearance, rat. Format: in vitro ADME. In general terms: Microsomes from liver hold many membrane-bound enzymes, among them those of drug oxidation.
A short description of data set [8]: Liver microsome (LM) intrinsic clearance, human. Type of data set: in vitro ADME.
Data set [9] in a line: Hepatocyte (Hep) intrinsic clearance, rat. Type of data set: in vitro ADME. To be noted: hepatocytes.
Data set [10] in a line: Hepatocyte (Hep) intrinsic clearance, dog. Type of data set: in vitro ADME. To be noted: hepatocytes.
A short description of data set [11]: Hepatocyte (Hep) intrinsic clearance, monkey. Type of data set: in vitro ADME. To be noted: hepatocytes.
The nature of data set [12]: Hepatocyte (Hep) intrinsic clearance, human. Format: in vitro ADME. To be noted: hepatocytes.
The target in data set [13] is T1, adenosine A1 receptor. The data set can be described thus: Adenosine receptor activity assay (Table 1), A1 cAMP. Type of data set: cell-based.
In data set [14] the target is T2, adenosine A3 receptor. The data set can be described thus: Adenosine receptor activity assay (Table 1), A3 cAMP. Type of data set: cell-based.
Data set [15] can be described thus: Liver microsome intrinsic clearance, rat. Format: in vitro ADME.
The nature of data set [16]: Liver microsome intrinsic clearance, human. Type of data set: in vitro ADME.
In data set [17] the test system is CYP 450. Briefly: CYP450 inhibition at 10 μM. Type of data set: in vitro ADME.
Data set [18] in a line: Hepatocyte intrinsic clearance, rat. Type of data set: in vitro ADME.
Data set [19] is described as follows: Hepatocyte intrinsic clearance, human. Type of data set: in vitro ADME.

The term IC50 denotes the point on the concentration scale where inhibition reaches its midpoint. The term hepatocyte CLint denotes the rate of metabolic loss divided by the concentration.

adenosine A2B receptor, sequence (P29275 whole entry): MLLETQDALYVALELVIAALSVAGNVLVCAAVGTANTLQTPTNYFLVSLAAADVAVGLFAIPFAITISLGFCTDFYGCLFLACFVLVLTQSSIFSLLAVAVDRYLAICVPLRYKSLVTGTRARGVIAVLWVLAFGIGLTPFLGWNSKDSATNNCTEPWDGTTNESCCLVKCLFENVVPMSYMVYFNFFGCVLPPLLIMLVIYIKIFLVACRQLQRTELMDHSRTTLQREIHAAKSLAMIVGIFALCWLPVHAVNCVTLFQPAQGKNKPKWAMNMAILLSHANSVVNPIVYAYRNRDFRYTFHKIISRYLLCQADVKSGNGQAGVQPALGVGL
T2 sequence (P0DMS8 whole entry): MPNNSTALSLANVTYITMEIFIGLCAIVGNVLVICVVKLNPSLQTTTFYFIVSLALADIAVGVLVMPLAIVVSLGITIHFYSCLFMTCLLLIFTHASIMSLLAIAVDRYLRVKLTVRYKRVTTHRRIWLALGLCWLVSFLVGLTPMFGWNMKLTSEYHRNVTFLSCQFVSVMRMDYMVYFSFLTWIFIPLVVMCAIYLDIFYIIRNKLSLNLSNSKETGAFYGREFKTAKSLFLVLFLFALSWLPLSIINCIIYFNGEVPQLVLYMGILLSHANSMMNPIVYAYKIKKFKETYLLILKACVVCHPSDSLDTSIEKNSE
CYP3A4, sequence (P08684 whole entry): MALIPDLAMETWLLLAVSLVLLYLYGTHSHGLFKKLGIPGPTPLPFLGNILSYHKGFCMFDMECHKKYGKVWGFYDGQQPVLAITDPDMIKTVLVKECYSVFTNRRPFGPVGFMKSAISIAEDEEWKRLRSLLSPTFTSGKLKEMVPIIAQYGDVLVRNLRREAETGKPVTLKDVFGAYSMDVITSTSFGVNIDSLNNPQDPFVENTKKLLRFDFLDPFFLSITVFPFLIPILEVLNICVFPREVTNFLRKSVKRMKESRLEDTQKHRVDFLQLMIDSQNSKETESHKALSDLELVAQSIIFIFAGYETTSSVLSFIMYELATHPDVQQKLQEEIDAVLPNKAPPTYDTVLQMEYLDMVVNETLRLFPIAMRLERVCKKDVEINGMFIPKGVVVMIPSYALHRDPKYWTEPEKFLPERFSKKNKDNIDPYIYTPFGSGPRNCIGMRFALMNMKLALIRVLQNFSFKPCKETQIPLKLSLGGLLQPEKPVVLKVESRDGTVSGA
adenosine A2A receptor, sequence (P29274 whole entry): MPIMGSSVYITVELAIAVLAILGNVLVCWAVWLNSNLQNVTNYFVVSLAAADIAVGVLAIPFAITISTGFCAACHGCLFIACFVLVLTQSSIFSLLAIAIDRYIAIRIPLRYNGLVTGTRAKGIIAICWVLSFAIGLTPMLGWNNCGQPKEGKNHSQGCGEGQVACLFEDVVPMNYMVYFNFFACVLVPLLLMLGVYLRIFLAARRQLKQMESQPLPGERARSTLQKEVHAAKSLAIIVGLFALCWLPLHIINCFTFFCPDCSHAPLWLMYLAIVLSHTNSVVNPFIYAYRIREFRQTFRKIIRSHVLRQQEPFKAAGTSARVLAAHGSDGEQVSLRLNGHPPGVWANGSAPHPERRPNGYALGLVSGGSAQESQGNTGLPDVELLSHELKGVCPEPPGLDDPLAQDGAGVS
T1 sequence (P30542 whole entry): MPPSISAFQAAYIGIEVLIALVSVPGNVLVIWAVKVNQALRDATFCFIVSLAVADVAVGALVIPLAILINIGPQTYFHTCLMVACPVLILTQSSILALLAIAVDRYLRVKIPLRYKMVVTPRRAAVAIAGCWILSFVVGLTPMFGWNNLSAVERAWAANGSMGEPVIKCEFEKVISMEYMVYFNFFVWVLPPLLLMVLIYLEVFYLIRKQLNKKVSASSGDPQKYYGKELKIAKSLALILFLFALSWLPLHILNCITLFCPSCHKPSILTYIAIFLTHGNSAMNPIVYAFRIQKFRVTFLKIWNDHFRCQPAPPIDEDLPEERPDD
CYP2D6, sequence (P10635 whole entry): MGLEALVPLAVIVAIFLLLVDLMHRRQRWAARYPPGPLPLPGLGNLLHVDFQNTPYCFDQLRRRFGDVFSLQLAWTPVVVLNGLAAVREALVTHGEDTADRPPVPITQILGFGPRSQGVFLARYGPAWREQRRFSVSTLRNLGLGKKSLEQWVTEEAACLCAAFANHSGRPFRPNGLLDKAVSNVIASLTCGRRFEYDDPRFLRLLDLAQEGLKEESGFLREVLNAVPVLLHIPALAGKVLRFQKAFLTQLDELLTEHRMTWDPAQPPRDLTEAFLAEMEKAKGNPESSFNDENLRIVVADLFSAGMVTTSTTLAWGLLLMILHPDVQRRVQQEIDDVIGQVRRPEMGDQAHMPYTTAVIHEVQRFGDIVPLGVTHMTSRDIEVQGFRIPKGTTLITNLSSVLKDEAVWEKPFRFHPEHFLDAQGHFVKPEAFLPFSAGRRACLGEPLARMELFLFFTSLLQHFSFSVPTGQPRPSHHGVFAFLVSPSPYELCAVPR

In the case of `C[C@H](Nc1nc(C(=O)N2CCCC2)c2sccc2n1)c1ccccn1` [Example Z10, (S)-(2-((1-(Pyridin-2-yl)ethyl)amino)thieno[3,2-d]pyrimidin-4-yl)(pyrrolidin-1-yl)methanone], in data set [1], the Ratio came to 7.99. Moreover, the half-inhibitory concentration (IC50) in [1] is below 0.01 µM; in data set [2] it was 0.05 to 0.1 µM; in data set [3], above 0.5 µM; in [4], above 0.5 µM. The inhibition at 10 µM in data set [5] came to 0%; in data set [6], 8%. The “LM CLint” value was found to be 15.05 μL/min/mg/protein in data set [7] and 16.29 μL/min/mg/protein in data set [8]. Besides, the hepatocyte CLint in data set [9] was determined as 26.7 µL/min/1e6 cells; in [10] it was 46.1 µL/min/1e6 cells; in data set [11], 17.9 µL/min/1e6 cells; in [12], 6.53 µL/min/1e6 cells.
As to `C[C@H](Nc1nc(C(=O)N2CC[C@H](O)C2)c2sccc2n1)c1cccnc1` [Example Z28, ((S)-3-Hydroxypyrrolidin-1-yl)(2-(((S)-1-(pyridin-3-yl)ethyl)amino)thieno[3,2-d]pyrimidin-4-yl)methanone], the Ratio in [1] is 39.41. The IC50 in [1] was 0.05 to 0.1 µM; in data set [2], above 0.5 µM; in data set [3] it was above 0.5 µM; in data set [4] it was above 0.5 µM. Besides, the inhibition at 10 µM in [5] came out at 35%; in data set [6], 11%. Further, the “LM CLint” value in data set [7] was determined as 9.33 μL/min/mg/protein; in data set [8], 4.55 μL/min/mg/protein. Further, the hepatocyte CLint is 34.7 µL/min/1e6 cells in [9], 2.59 µL/min/1e6 cells in [10], 0.62 µL/min/1e6 cells in data set [11] and 3.48 µL/min/1e6 cells in data set [12].
For the compound `C[C@H](Nc1nc(C(=O)N2CC[C@@H](F)C2)c2sccc2n1)c1ccccn1` [Example Z52, ((R)-3-Fluoropyrrolidin-1-yl)(2-(((S)-1-(pyridin-2-yl)ethyl)amino)thieno[3,2-d]pyrimidin-4-yl)methanone], the Ratio in data set [1] was found to be 5.74. For the same compound, the IC50 in data set [1] is below 0.01 µM; in data set [2], 0.01 to 0.05 µM; in data set [3], above 0.5 µM; in data set [4], above 0.5 µM. Moreover, the results for the inhibition at 10 µM in [5] and in [6] were 7% and 0%, respectively. The “LM CLint” value amounted to 11.87 μL/min/mg/protein in data set [7] and 11.20 μL/min/mg/protein in data set [8]. Also, the hepatocyte CLint was 45.3 µL/min/1e6 cells in data set [9], 41.7 µL/min/1e6 cells in data set [10], 18.7 µL/min/1e6 cells in [11] and 12.7 µL/min/1e6 cells in data set [12].
Regarding `C[C@H](Nc1nc(C(=O)N2CC[C@H](O)C2)c2sccc2n1)c1ccccn1` [Example Z58, ((S)-3-Hydroxypyrrolidin-1-yl)(2-(((S)-1-(pyridin-2-yl)ethyl)amino)thieno[3,2-d]pyrimidin-4-yl)methanone], the Ratio in data set [1] stood at 15.14. Also, the IC50 in data set [1] is 0.05 to 0.1 µM; in data set [2] it was above 0.5 µM; in data set [3], above 0.5 µM; in data set [4] it was above 0.5 µM. The values for the inhibition at 10 µM in data set [5] and in data set [6] were 0% and 10%, respectively. Besides, the results for the “LM CLint” value in data set [7] and in data set [8] were 0.0 μL/min/mg/protein and 5.60 μL/min/mg/protein, respectively. The hepatocyte CLint in [9] is 4.46 µL/min/1e6 cells; in data set [10], 1.73 µL/min/1e6 cells; in data set [11], 0.19 µL/min/1e6 cells; in data set [12], 2.21 µL/min/1e6 cells.
For the compound `C[C@H](Nc1nc(C(=O)N2CC[C@@H](O)C2)c2sc(C(F)(F)F)cc2n1)c1cccnc1` [Example Z337, ((R)-3-Hydroxypyrrolidin-1-yl)(2-(((S)-1-(pyridin-3-yl)ethyl)amino)-6-(trifluoromethyl)thieno[3,2-d]pyrimidin-4-yl)methanone], the Ratio in data set [1] is 120.82. Moreover, the IC50 is 0.01 to 0.05 µM in data set [1], above 0.5 µM in data set [2], above 0.5 µM in data set [13] and above 0.5 µM in data set [14]. Besides, the results for the “LM CLint” value in data set [15] and in data set [16] were 13.69 μL/min/mg/protein and 20.68 μL/min/mg/protein, respectively.
In the case of `C[C@H](Nc1nc(C(=O)NCCc2ccc(O)cc2)c2sccc2n1)c1cncc(F)c1` [Example Z340, (S)-2-((1-(5-Fluoropyridin-3-yl)ethyl)amino)-N-(4-hydroxyphenethyl)thieno[3,2-d]pyrimidine-4-carboxamide], in data set [1], the Ratio was found to be 95.47. The IC50 was below 0.01 µM in data set [1], 0.1 to 0.5 µM in data set [2], above 0.5 µM in data set [13] and above 0.5 µM in data set [14]. The “LM CLint” value in [15] worked out at 504.21 μL/min/mg/protein; in [16], 258.52 μL/min/mg/protein.
Turning to `C[C@H](Nc1nc(C(=O)N2CC[C@@H](O)C2)c2sc(C(F)(F)F)cc2n1)c1cncc(F)c1` [Example Z391, (2-(((S)-1-(5-Fluoropyridin-3-yl)ethyl)amino)-6-(trifluoromethyl)thieno[3,2-d]pyrimidin-4-yl)((R)-3-hydroxypyrrolidin-1-yl)methanone], in data set [1], the Ratio came to 288.73. Further, the IC50 in data set [1] was below 0.01 µM; in data set [2], above 0.5 µM; in data set [13], above 0.5 µM; in data set [14], above 0.5 µM. Besides, the “LM CLint” value was determined as 7.73 μL/min/mg/protein in data set [15] and 12.73 μL/min/mg/protein in [16].
With “(6-Amino-2-(((S)-1-(5-fluoropyridin-3-yl)ethyl)amino)thieno[3,2-d]pyrimidin-4-yl)((S)-3-hydroxypyrrolidin-1-yl)methanone [Example Z212]”, the Ratio in [1] stood at 149.76. Also, the IC50 was below 0.01 µM in data set [1], above 0.5 µM in data set [2], above 0.5 µM in data set [13] and above 0.5 µM in data set [14]. Further, in [17], the “CYP 450 % INH @ 10 μM” value amounted to 19.6%. The “Hep CLint” value in data set [18] worked out at 5.95 mL/min/10^6 cells; in data set [19] it was 1.64 mL/min/10^6 cells.

Source of the values: patent publication US11254686B1 (Corvus Pharmaceuticals, Inc., priority 2017, dated 2022).
